The results in this text go back to ChEMBL document CHEMBL1201862, “PubChem BioAssay data set” (2004).

Test systems include A498; A549; CAKI-1; COLO 205; DU-145; EKVX; HCT-15; Hs-578T; K562; NCI/ADR-RES; OVCAR-4; OVCAR-5; SF-295; SNB-19; SR; SW-620; UACC-257; NCI-H23.
What all share (test): growth of human tumour cells (NCI), 48 h

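Results reflect a 48-hour exposure of cells in 96-well plates to compound at five concentrations. GI50 = concentration required for 50% inhibition of growth.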 Calls of active or inactive are those of the source. Rule as the data show it: active = GI50 up to about 1.1 µM and inactive = higher.

With `O=C(CCC=C(S(=O)(=O)c1ccccc1)S(=O)(=O)c1ccccc1)c1ccccc1`, the GI50 is 17.3 µM (inactive) in the experiment with A498; 17.1 µM (inactive) in the experiment on A549; 5.96 µM (inactive) in the experiment on CAKI-1; 7.11 µM (inactive) in the experiment with COLO 205; 5.64 µM (inactive) in the experiment with DU-145; 12.7 µM (inactive) in the experiment on EKVX. Further, the GI50 in the experiment on HCT-15 was 5.98 µM; with Hs-578T, 5.22 µM (inactive); in the experiment with K562, 3.73 µM (inactive); with NCI/ADR-RES it was 4.06 µM (inactive); in the experiment with OVCAR-4, 9.33 µM (inactive); in the experiment with OVCAR-5, 10.7 µM (inactive). The GI50 in the experiment on SF-295 is 22.5 µM (inactive); with SNB-19, 13.6 µM (inactive); in the experiment with SR, 3.01 µM (inactive); in the experiment with SW-620 it was 3.4 µM (inactive); in the experiment on UACC-257, 8.91 µM (inactive).

For the compound `CN(C)c1ccc(C(=N/N=C2\C(=O)Nc3ccccc32)c2ccc(N(C)C)cc2)cc1`, the GI50 in the experiment with A498 is 1.96 µM (inactive); in the experiment on A549, 0.625 µM (active); with CAKI-1, 0.39 µM (active); with COLO 205, 0.358 µM (active); in the experiment on DU-145, 1.91 µM (inactive); in the experiment with EKVX, 5.15 µM (inactive). For the same compound, the GI50 in the experiment with HCT-15 is 0.188 µM; in the experiment on Hs-578T it was 0.836 µM (active); in the experiment with K562 it was 0.196 µM (active); in the experiment with NCI-H23 it was 1.73 µM (inactive); with NCI/ADR-RES it was 0.218 µM (active); with OVCAR-4, 1.94 µM (inactive). Also, the GI50 is 3.72 µM (inactive) with OVCAR-5; 0.308 µM (active) in the experiment on SF-295; 1.22 µM (inactive) in the experiment with SNB-19; 0.0262 µM (active) with SR; 0.247 µM (active) with SW-620; 24.5 µM (inactive) in the experiment with UACC-257.

As for `COc1ccc(CNc2nc3ccccc3nc2-c2cccs2)cc1`, the GI50 in the experiment with A498 was 29.4 µM (inactive); with A549, 33.1 µM (inactive); with CAKI-1, 15.1 µM (inactive); with COLO 205, 38.1 µM (inactive); in the experiment on DU-145, > 100 µM (inactive); in the experiment on EKVX, 97.9 µM (inactive). For the same compound, the GI50 with HCT-15 is 35.4 µM; in the experiment with Hs-578T, 23.4 µM (inactive); in the experiment with K562 it was 23.6 µM (inactive); with NCI-H23, 62.4 µM (inactive); with NCI/ADR-RES, 17.4 µM (inactive); in the experiment on OVCAR-4 it was 29.9 µM (inactive). Moreover, the GI50 with OVCAR-5 was > 100 µM (inactive); in the experiment on SF-295 it was 46.7 µM (inactive); in the experiment on SR, 15.6 µM (inactive); in the experiment on SW-620 it was 51.9 µM (inactive); in the experiment with UACC-257, 31.2 µM (inactive).

Regarding `CC(C)(C)C#CI1OC(=O)c2ccccc21`, the GI50 was 6.07 µM (inactive) in the experiment with A498; 8.49 µM (inactive) with A549; 3.11 µM (inactive) in the experiment on CAKI-1; 2.28 µM (inactive) in the experiment on COLO 205; 6.08 µM (inactive) in the experiment on DU-145; 4.89 µM (inactive) in the experiment on EKVX. The GI50 was 3.38 µM in the experiment on HCT-15; 8.75 µM (inactive) with Hs-578T; 1.91 µM (inactive) in the experiment with K562; 3.48 µM (inactive) in the experiment on NCI-H23; 5.52 µM (inactive) with NCI/ADR-RES; 2.72 µM (inactive) with OVCAR-4. The GI50 in the experiment on OVCAR-5 was 7.67 µM (inactive); with SF-295 it was 14.3 µM (inactive); in the experiment on SNB-19, 9.27 µM (inactive); with SR, 0.74 µM (active); in the experiment with SW-620, 3.44 µM (inactive); in the experiment on UACC-257 it was 6.05 µM (inactive).

Turning to `CC(C)=CCOC(=O)C(C)=[N+]=[N-]`, the GI50 with A498 was > 100 µM (inactive); in the experiment on CAKI-1, > 100 µM (inactive); with COLO 205, > 100 µM (inactive); with DU-145, > 100 µM (inactive); in the experiment with EKVX, > 100 µM (inactive); in the experiment on HCT-15, more than 100 µM. The GI50 in the experiment on Hs-578T, in the experiment with K562, in the experiment with NCI-H23, in the experiment on NCI/ADR-RES, in the experiment on OVCAR-4 and in the experiment with OVCAR-5 was > 100 µM (inactive) throughout. The GI50 with SF-295, in the experiment on SNB-19, in the experiment on SR, in the experiment with SW-620 and in the experiment with UACC-257 was > 100 µM (inactive) throughout.

For `CC1=NN(c2nc(N)nc(CN3CCOCC3)n2)C(C)(C)C1`, the GI50 is > 100 µM (inactive) in the experiment with A498; > 100 µM (inactive) with A549; 20.2 µM (inactive) in the experiment with CAKI-1; 60.4 µM (inactive) in the experiment with COLO 205; > 100 µM (inactive) in the experiment on DU-145; 31.8 µM (inactive) with EKVX. For the same compound, the GI50 was more than 100 µM in the experiment on HCT-15; > 100 µM (inactive) in the experiment on Hs-578T; > 100 µM (inactive) with K562; > 100 µM (inactive) in the experiment on NCI-H23; > 100 µM (inactive) with NCI/ADR-RES; 20.5 µM (inactive) in the experiment on OVCAR-4. In addition, the GI50 is > 100 µM (inactive) with OVCAR-5; > 100 µM (inactive) in the experiment with SF-295; > 100 µM (inactive) in the experiment on SNB-19; 30.1 µM (inactive) in the experiment with SR; > 100 µM (inactive) in the experiment with SW-620; > 100 µM (inactive) in the experiment on UACC-257.

On to `CC(O)C1(CNc2cc(Cl)nc(N)n2)CCCC1` (configuration not stated), for which the GI50 in the experiment on A498, with A549, in the experiment with CAKI-1, with COLO 205, in the experiment on DU-145 and in the experiment with EKVX was > 100 µM (inactive) in each case. For the same compound, the GI50 with HCT-15 was more than 100 µM; with Hs-578T, > 100 µM (inactive); in the experiment with K562, > 100 µM (inactive); in the experiment on NCI-H23, 90.4 µM (inactive); in the experiment on NCI/ADR-RES, > 100 µM (inactive); with OVCAR-4, 75.3 µM (inactive). Also, the GI50 in the experiment with OVCAR-5, with SF-295, in the experiment with SNB-19, with SR, with SW-620 and in the experiment on UACC-257 was > 100 µM (inactive) in each case.

In the case of `CN(C)CCN(C)c1ccc2c(=O)n(CCN(C)C)c(=O)n3c4ccccc4c(=O)c1c23`, the GI50 was 0.471 µM (active) with A498; 0.0353 µM (active) with A549; < 0.026 µM (active) with CAKI-1; 0.647 µM (active) in the experiment on COLO 205; 0.128 µM (active) with DU-145; 1.66 µM (inactive) with EKVX. Also, the GI50 in the experiment with HCT-15 was 0.179 µM; in the experiment with Hs-578T it was 2.12 µM (inactive); in the experiment with K562 it was 0.14 µM (active); in the experiment with NCI-H23 it was 0.54 µM (active); in the experiment on NCI/ADR-RES it was 2.29 µM (inactive); with OVCAR-4, 0.364 µM (active). For the same compound, the GI50 in the experiment on OVCAR-5 was 1.87 µM (inactive); with SF-295 it was 0.34 µM (active); in the experiment with SNB-19, 0.518 µM (active); with SR, < 0.01 µM (active); in the experiment on SW-620, 0.119 µM (active); in the experiment with UACC-257 it was 1.56 µM (inactive).

Turning to `COc1cc(C2c3cc4c(cc3OC(NCCc3ccccc3)C2C)OCO4)cc(OC)c1OC` (configuration not stated), the GI50 in the experiment with A498 was 0.574 µM (active); in the experiment with A549 it was 0.452 µM (active); in the experiment with CAKI-1, 0.291 µM (active); in the experiment on COLO 205, 0.242 µM (active); in the experiment with DU-145, 0.431 µM (active); with EKVX it was 1.56 µM (inactive). In addition, the GI50 was 0.385 µM with HCT-15; 0.138 µM (active) with Hs-578T; 0.269 µM (active) with K562; 0.413 µM (active) with NCI-H23; 0.31 µM (active) in the experiment with NCI/ADR-RES; 0.778 µM (active) in the experiment on OVCAR-4. Further, the GI50 in the experiment on OVCAR-5 was 1.75 µM (inactive); with SF-295 it was 0.2 µM (active); in the experiment with SNB-19, 0.455 µM (active); with SR it was 0.174 µM (active); in the experiment with SW-620, 0.316 µM (active); in the experiment on UACC-257, 6.34 µM (inactive).

`COC(=O)C(NC(=O)CNC(=O)CSc1nnc(COc2ccc(Cl)cc2)n1-c1ccccc1)C(C)C` (configuration not stated): the GI50 with A498 is 21.6 µM (inactive); with A549, 31.3 µM (inactive); in the experiment with CAKI-1, 14.7 µM (inactive); with COLO 205, 19.5 µM (inactive); with DU-145, 18.8 µM (inactive); in the experiment with EKVX, 35.9 µM (inactive). The GI50 was 21.2 µM in the experiment with HCT-15; 22.9 µM (inactive) in the experiment on Hs-578T; 33.3 µM (inactive) in the experiment with K562; 20 µM (inactive) in the experiment with NCI-H23; > 100 µM (inactive) with NCI/ADR-RES; 22.1 µM (inactive) with OVCAR-4. The GI50 in the experiment with OVCAR-5 is 18.2 µM (inactive); in the experiment with SF-295, 19.5 µM (inactive); in the experiment on SNB-19, 20.3 µM (inactive); with SR, 11.1 µM (inactive); with SW-620, 20.2 µM (inactive); in the experiment on UACC-257 it was 18 µM (inactive).

For `Cc1cc2nnc(C(N)=O)c(N)c2cc1C`, the GI50 in the experiment on A498, in the experiment with A549, in the experiment with CAKI-1, in the experiment on COLO 205, with DU-145 and with EKVX was > 100 µM (inactive) throughout. For the same compound, the GI50 in the experiment on HCT-15 was more than 100 µM; in the experiment on Hs-578T, 30.5 µM (inactive); in the experiment with K562 it was > 100 µM (inactive); in the experiment with NCI-H23, > 100 µM (inactive); in the experiment with NCI/ADR-RES, > 100 µM (inactive); in the experiment on OVCAR-4, > 100 µM (inactive). Also, the GI50 with OVCAR-5, with SF-295, in the experiment with SNB-19, with SR, in the experiment on SW-620 and in the experiment with UACC-257 was > 100 µM (inactive) throughout.

For `Nc1nc(Cl)cc(NCC2(CO)COC2)n1`, the GI50 with A498, in the experiment on A549, with CAKI-1, with COLO 205, in the experiment with DU-145 and in the experiment on EKVX was > 100 µM (inactive) in each case. The GI50 in the experiment on HCT-15 was more than 100 µM; in the experiment on Hs-578T it was > 100 µM (inactive); in the experiment on K562, > 100 µM (inactive); with NCI-H23, > 100 µM (inactive); with NCI/ADR-RES, > 100 µM (inactive); in the experiment on OVCAR-4, > 100 µM (inactive). Besides, the GI50 in the experiment on OVCAR-5, in the experiment on SF-295, in the experiment on SR, with SW-620 and in the experiment with UACC-257 was > 100 µM (inactive) throughout.
